From paper PMC2854587 (Nature, 2008)

Molecular target: T1, SrfTEII (surfactin type II thioesterase; SrfD, external thioesterase) (Bacillus subtilis, UniProt Q08788)
T1 sequence (Q08788 1-241): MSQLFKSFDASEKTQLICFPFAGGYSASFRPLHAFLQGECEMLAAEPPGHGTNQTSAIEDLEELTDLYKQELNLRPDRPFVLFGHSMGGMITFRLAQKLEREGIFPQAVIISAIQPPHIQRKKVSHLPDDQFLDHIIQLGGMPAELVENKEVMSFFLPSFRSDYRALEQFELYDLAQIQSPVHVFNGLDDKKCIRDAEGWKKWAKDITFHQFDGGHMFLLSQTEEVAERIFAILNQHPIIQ
Experiment: […]-HSQC NMR titration
Type: binding
Settings: 296 K; 15N-enriched SrfTEII

## CCCCCCCCCCCCCC(=O)SCCNC(=O)CCNC(=O)[C@H](O)C(C)(C)COP(=O)(O)OP(=O)(O)OC[C@H]1O[C@@H](n2cnc3c(N)ncnc32)[C@H](O)[C@@H]1OP(=O)(O)O [myristoyl-CoA]
  15N-HSQC NMR titration (chemical shift perturbation): Interestingly, myristoyl-CoA also binds to SrfTEII
